The values below are quoted from earlier work in PMC3171802 (Chemistry & biology, 2011).

The structures appear in SMILES notation.

This data set has as its system Ba/F3 cells transformed to IL-3 independence by overexpression of PIM1 or PIM2. Particulars: ref Pogacic et al., 2007.

As for `CC(=O)c1cccc(-c2cnc3ccc(NCC4CC4)nn23)c1` [Compound K00135], the “survival of Ba/F3 cells transformed by PIM1 or PIM2” value is reported as “significantly impaired survival”.
